Results on 4 compounds are retold here after patent US7981893B2, “Heteroaryl compounds, compositions thereof, and methods of treatment therewith” (Signal Pharmaceuticals, LLC, priority 2006, dated 2011).

Each structure is given as a SMILES string.

What all share (format): biochemical
One test concerns the target T1, mTOR (Homo sapiens, UniProt P42345).
T1 construct: Dilute TOR fraction 1:14 in “Simple TOR Buffer”
Briefly: mTOR HTR-FRET Assay. As to conditions: HTR-FRET screening assay, GST-p70S6 kinase fragment substrate. On the procedure: The following is an example of an assay that can be used to determine the mTOR inhibitory activity of a test compound. Reagents are prepared as follows:
“Simple TOR buffer” (used to dilute high glycerol TOR fraction): 10 mM Tris pH 7.4, 100 mM NaCl, 0.1% Tween-20, 1 mM DTT (from 1M stock frozen at −20° C. just prior to use). For convenience a large quantity of “Simple TOR buffer” w/o DTT can be stored at 4° C. It can be brought to room temperature and DTT added just prior to dilution of TOR fraction.
5×KB/5×Mn/5×ATP solution (used to dilute substrate GST-p70S6kin 81 a.a. just prior to use) (40 ml screen quantity shown):
Enzyme solution: Dilute TOR fraction 1:14 in “Simple TOR Buffer”. For current lot that is 640 μg/ml TOR fraction diluted 14× to yield 45.7 μg/ml TOR in buffer (i.e. 7.85 ml TOR pooled fraction+102.1 ml Simple TOR buffer=110 ml 14× diluted TOR fraction). Each Enzyme Lot must be QC'd prior to assay.
Substrate solution: This may be prepared just prior to assay if preferred. Dilute 5.3 mg/ml GST-p70S6kinase fragment stock to 3.5 μg/ml (97 nM) working stock in 5×KB/5×Mn/5×ATP solution (i.e. 26.41 μL (5.3 mg/ml) GST-p70S6+40 ml 5×KB/5×Mn/5×ATP=40 ml 3.5 μg/ml (97 nM)).
Assay Buffer (for dilution of Antibodies used in Antibody Detection Reagent):
Antibody Detection Reagent (this reagent should be made just prior to addition to Assay Plates):
Using PlateTrak program (Screen) or Matrix Pipettor (SAR), 19.5 μL of diluted TOR fraction is added to assay plate in all test, reference or positive control wells. 19.5 μL of “Simple TOR buffer” is added to all negative control wells. If treating multiple plates with the same compounds, can increase volume of enzyme to multiples of 19.5 μL in a tall 384 well polypropylene plate.
Using EP3, 0.5 μl of test, reference or control DMSO is added to each well with mixing. Plates are incubated for 30 minutes at room temperature.
Using PlateTrak program (Screen) or Matrix Pipettor (SAR) 5 μL of 5×KB/5×Mn/5×ATP/5× substrate solution is added to each well of the assay plate to start the reaction. The solutions are mixed well and incubated for 2 hours at room temperature.
Using PlateTrak program (Screen) or Matrix Pipettor (SAR) 5 μL of 60 mM EDTA is added to stop the reaction. The solutions are mixed well and allowed to sit for 15-20 minutes before the next step.
Using PlateTrak program (Screen) or Matrix Pipettor (SAR) 10 μl of Antibody Detection Reagent is added. The solutions are mixes well and incubated for 5 hours to O/N to allow antibodies to form complexes with phosphorylated substrate.
Plates are read on AnalystHT using protocol Multi-Method protocol.

A further test concerns the target T2, PKCθ (Homo sapiens, UniProt Q04759).
T2 construct: purchased Invitrogen
The test is described as follows: PKCθ IMAP Assay. The settings on record: IMAP fluorescence polarization screening assay, 35 μM ATP. The method in brief:
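IMAP fluorescence polarization with 0.5 nM PKCθ, 100 nM FAM-AKRRRLSSLRA, 35 μM ATP, 2.5% DMSO, pH 7.6 HEPES with phosphatidyl serine/diacylglycerol. Compound pre-incubated with enzyme 45 min; reaction 60 min, then binding beads ≥30 min before FP read.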
(Fluorescence polarisation rises when a labelled molecule tumbles more slowly, as on binding a larger partner.)

The target of a further test is T3, Syk (Homo sapiens, UniProt P43405).
T3 construct: purchased Carna Biosciences 08-176
The test is described as follows: Syk HTRF Assay. As to conditions: HTRF screening assay. On the procedure:
5 μl/well DMSO is added to Column 2 Wells A-O and 29.5 μl to well P2 of Greiner 384-well polypropylene plate. 20 μl/well DMSO is added to Columns 1 and 3-12.
25 mM compound solutions are prepared by the addition of 25 μl of 30 mM compound to Column 2 and 0.5 μl 30 mM reference control to well P2.
Serial dilution is then performed by the following steps: (i) compounds in Column 2 are mixed by pipetting 20 μl up and down 6×; (ii) 10 μl/well compounds in DMSO are transferred from one column to the next column for Columns 2-11; (iii) wells are mixed by pipetting 20 μl up and down 6×; (iv) tips washed 3×25 μl DMSO, 2×25 μl next DMSO.
The following buffers are prepared:
Dilution Buffer: 50 mM HEPES pH 7.6; 1 mM DTT; 10 mM MgCl2; 0.01% Triton X100; 0.01% BSA; 0.1 mM EDTA.
Enzyme Mix in Dilution Buffer: 8.621 ng/ml Syk (Carna Biosciences 08-176).
Start Mix in Dilution Buffer: 87.5 μM ATP; 80 nM Substrate Peptide (American Peptide Company 332722).
14.5 μl/well Enzyme Mix or Dilution Buffer (Background Controls) is added to Costar 384-well black plates.
Compound addition and mixture is performed by the following steps: (i) 0.5 μl/well DMSO/compounds in DMSO transferred from Greiner 384-well polypropylene plate to left half of assay plate containing 14.5 μl/well Enzyme Mix and Dilution Buffer; (ii) Mix by pipetting 10 μl up and down 4×; (iii) tips are washed 4×10 μl in DMSO, 2×20 μl in other DMSO; (iv) steps i-iii are repeated with transfer to right half of assay plate; (v) steps i-iv are repeated with each compound/assay plate until all plates are completed.
10 μl/well Start Mix is added and incubated at room temperature on shaker for 2 minutes (1 hour total reaction time).
Stop Solution in Dilution Buffer: 120 mM EDTA
Antibody Mix in Dilution Buffer: 4.86 μg/ml DyLight 647 Streptavidin (Pierce 21824); 1 μg/ml Lance Eu-Anti-Phosphotyrosine (PerkinElmer AD0069).
5 μl/well[…] is added and incubated at room temperature on shaker for 2 minutes.
[…] Antibody Mix is added and Incubated at room temperature on shaker for 2 minutes (4 hours to overnight total time).
Plates are read at 665 nm and 620 nm emission on Analyst GT protocol HTRF_SP_A or EnVision protocol Steve's TR-FRET.

T2 sequence (Q04759 whole entry): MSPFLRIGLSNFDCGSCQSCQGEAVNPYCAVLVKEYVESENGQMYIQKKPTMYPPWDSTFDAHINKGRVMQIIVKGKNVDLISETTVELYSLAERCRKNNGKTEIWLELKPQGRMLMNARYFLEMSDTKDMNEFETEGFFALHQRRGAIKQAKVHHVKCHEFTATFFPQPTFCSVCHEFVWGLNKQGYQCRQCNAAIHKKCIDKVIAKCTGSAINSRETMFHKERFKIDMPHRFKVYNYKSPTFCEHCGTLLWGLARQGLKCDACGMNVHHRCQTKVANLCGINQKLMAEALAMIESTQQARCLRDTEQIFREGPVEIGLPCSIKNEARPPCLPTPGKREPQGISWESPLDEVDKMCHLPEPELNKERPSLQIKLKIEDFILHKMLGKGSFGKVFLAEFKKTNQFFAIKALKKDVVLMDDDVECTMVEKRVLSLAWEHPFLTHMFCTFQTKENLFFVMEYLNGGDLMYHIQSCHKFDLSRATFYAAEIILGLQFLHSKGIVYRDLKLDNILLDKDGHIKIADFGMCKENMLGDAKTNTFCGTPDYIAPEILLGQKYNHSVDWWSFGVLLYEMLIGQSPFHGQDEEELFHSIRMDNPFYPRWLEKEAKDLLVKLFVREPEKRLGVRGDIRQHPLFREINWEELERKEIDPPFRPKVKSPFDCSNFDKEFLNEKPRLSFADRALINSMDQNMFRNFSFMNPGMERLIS

The term IC50 denotes the concentration that inhibits the measured activity by half. A higher IC50 goes with lower potency. For `CC(C)[C@@H](CO)n1c(=O)[nH]c2ncc(-c3cccc4ncccc34)nc21` [Compound 11, (S)-1-(1-hydroxy-3-methylbutan-2-yl)-6-(quinolin-5-yl)-1H-imidazo[4,5-b]pyrazin-2(3H)-one], the IC50 was above 30 µM against mTOR, 20.1 to 30 µM against PKCθ and above 30 µM against Syk.
Consider `COc1ccc(C(C)C)cc1-c1cnc2[nH]c(=O)n([C@@H](CO)C(C)C)c2n1` [Compound 13, (R)-1-(1-hydroxy-3-methylbutan-2-yl)-6-(5-isopropyl-2-methoxyphenyl)-1H-imidazo[4,5-b]pyrazin-2(3H)-one], for which the values for the IC50 at PKCθ and on Syk were 10.1 to 20 µM and 5.1 to 10 µM, respectively.
As to `COc1ccc(C(C)C)cc1-c1cnc2[nH]c(=O)n([C@H](C)C(C)C)c2n1` [Compound 28, (R)-6-(5-isopropyl-2-methoxyphenyl)-1-(3-methylbutan-2-yl)-1H-imidazo[4,5-b]pyrazin-2(3H)-one], the IC50 at PKCθ and against Syk was 0.1 to 5 µM throughout.
As to `COc1ccc(C(C)C)cc1-c1cnc2[nH]c(=O)n([C@@H](C)C(C)C)c2n1` [Compound 30, (S)-6-(5-isopropyl-2-methoxyphenyl)-1-(3-methylbutan-2-yl)-1H-imidazo[4,5-b]pyrazin-2(3H)-one], the figures for the IC50 against PKCθ and against Syk were 20.1 to 30 µM and 0.1 to 5 µM, respectively.
